Data from patent publication US20210215714A1, “COMPLEMENT ALTERNATIVE PATHWAY-ASSOCIATED NEPHROPATHY BIOMARKERS” (Achillion Pharmaceuticals, Inc., priority 2018, published 2021).

Assay: Phase 2a study in C3G / IC-MPGN patients: urine albumin-to-creatinine ratio (ACR);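 further: urine samples from C3G or IC-MPGN patients read by central lab dipstick on automated urine chemistry analyzer, ratio computed from albumin and creatinine pad absorbance, healthy volunteer urine as control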
Conditions: for ACR: 200 mg TID; for ACR GEOMEAN / ACR MEAN: patients A-F
From the text: 10 patients with either C3 Glomerulopathy (C3G) or Immune-Complex Membranoproliferative Glomerulonephritis (IC-MPGN) are to be enrolled across two dose groups. […] Inclusion criteria include a clinical diagnosis of C3G (C3 glomerulonephritis [C3GN] or dense deposit disease [DDD], the 2 types of C3G) or idiopathic immune-complex membranoproliferative glomerulonephritis (IC-MPGN) by renal biopsy for at least 3 months prior to dosing, with the pathologic diagnosis verified by review of the renal biopsy by the study central pathologist. Patients must have low C3 levels (<50% of the lower limit of normal) and normal or near-normal C4 levels (>90% of the lower limit of normal). Group 1 has enrolled 2 out of 2 planned patients and Group 2 has enrolled 4 out of 8 planned patients.
Albumin and creatinine levels were measured in urine samples by a central reference lab using a urine dipstick method. Urine from non-study healthy volunteers served as control samples. An automatic urinary chemical analyzer was used with a dye for the detection of albumin at >8 mg/dL. Also present on the dipstick was a pad for detection of creatinine that uses the peroxidase activity of the copper-creatinine complex. The ACR ratio was automatically calculated by the analyzer based on the light absorbent readings of the albumin and creatinine test pads.

Work on `CC(=O)c1nn(CC(=O)N2C[C@H](F)C[C@H]2C(=O)Nc2cccc(Br)n2)c2ccc(-c3cnc(C)nc3)cc12` [Compound 1, (2S,4R)-1-(2-(3-acetyl-5-(2-methylpyrimidin-5-yl)-1H-indazol-1-yl)acetyl)-N-(6-bromopyridin-2-yl)-4-fluoropyrrolidine-2-carboxamide] yielded an ACR (Patient D, Day 17 Taper) of 586 mg/mmol, an ACR (Patient D, Day 21 Taper) of 564 mg/mmol and an ACR (Patient D, Follow-Up Day 24) of 282 mg/mmol. It also gave an ACR (Patient D, Follow-Up Day 28) of 577 mg/mmol, an ACR (Patient D, Follow-Up Day 35) of 398 mg/mmol and an ACR (Patient D, Follow-Up Day 49) of 636 mg/mmol. For the same compound, the ACR (Patient D, Screen) was 579 mg/mmol, the ACR (Patient D, Screen 1) was 160 mg/mmol and the ACR (Patient E, Day 1/0 Hour) was 424 mg/mmol. It also gave an ACR (Patient E, Day 4) of 418 mg/mmol, an ACR (Patient E, Day 7/0 Hour) of 533 mg/mmol and an ACR (Patient E, Day 10) of 625 mg/mmol. The ACR (Patient E, Day 14) was 264 mg/mmol, the ACR (Patient E, Day 15 Taper) was 327 mg/mmol and the ACR (Patient E, Day 16 Taper) was 277 mg/mmol. For the same compound, the ACR (Patient E, Day 17 Taper) was 475 mg/mmol, the ACR (Patient E, Day 21 Taper) was 257 mg/mmol and the ACR (Patient E, Follow-Up Day 24) was 303 mg/mmol. For the same compound, the ACR (Patient E, Follow-Up Day 28) was 307 mg/mmol, the ACR (Patient E, Follow-Up Day 49) was 327 mg/mmol and the ACR (Patient F, Day 4) was 152 mg/mmol. The ACR (Patient F, Day 7/0 Hour) was 94 mg/mmol, the ACR (Patient F, Day 14) was 184 mg/mmol and the ACR (Patient F, Day 15 Taper) was 720 mg/mmol. For the same compound, the ACR (Patient F, Day 16 Taper) was 235 mg/mmol, the ACR (Patient F, Day 17 Taper) was 475 mg/mmol and the ACR (Patient F, Day 21 Taper) was 348 mg/mmol. For the same compound, the ACR (Patient F, Follow-Up Day 24) was 279 mg/mmol, the ACR (Patient F, Follow-Up Day 28) was 253 mg/mmol and the ACR (Patient F, Follow-Up Day 35) was 168 mg/mmol. For the same compound, the ACR (Patient F, Follow-Up Day 49) was 564 mg/mmol, the ACR (Patient F, Screen) was 308 mg/mmol and the “reductions in ACR” value (Patients A, B, C, E, and F, two-week treatment) was “approximately 50%”. The “ACR GEOMEAN” value (Day 1/0 Hour) was 249.6 mg/mmol, the “ACR MEAN” value (Day 1/0 Hour) was 306.4 mg/mmol and the “ACR GEOMEAN” value (Day 4) was 174.0 mg/mmol. The “ACR MEAN” value (Day 4) was 226.3 mg/mmol, the “ACR GEOMEAN” value (Day 7/0 Hour) was 164.9 mg/mmol and the “ACR MEAN” value (Day 7/0 Hour) was 242.1 mg/mmol. For the same compound, the “ACR GEOMEAN” value (Day 14) was 171.4 mg/mmol, the “ACR MEAN” value (Day 14) was 213.8 mg/mmol and the “ACR GEOMEAN” value (Day 15 Taper) was 232.4 mg/mmol. For the same compound, the “ACR MEAN” value (Day 15 Taper) was 314.6 mg/mmol, the “ACR GEOMEAN” value (Day 17 Taper) was 224.2 mg/mmol and the “ACR MEAN” value (Day 17 Taper) was 324.2 mg/mmol. The “ACR GEOMEAN” value (Day 21 Taper) was 197.9 mg/mmol, the “ACR MEAN” value (Day 21 Taper) was 284.0 mg/mmol and the “ACR GEOMEAN” value (Follow-Up Day 24) was 191.6 mg/mmol. The “ACR MEAN” value (Follow-Up Day 24) was 250.6 mg/mmol, the “ACR GEOMEAN” value (Follow-Up Day 28) was 217.5 mg/mmol and the “ACR MEAN” value (Follow-Up Day 28) was 282.6 mg/mmol. The “ACR GEOMEAN” value (Follow-Up Day 49) was 191.1 mg/mmol and the “ACR MEAN” value (Follow-Up Day 49) was 305.6 mg/mmol.
